What is called EC50 is the concentration needed to bring the measured effect to its halfway point. A high value points to a less potent agent.

The values that follow come from PMC6872167, “An odorant receptor from Anopheles gambiae that demonstrates enantioselectivity to the plant volatile, linalool” (PLoS ONE, 2019).

In experiment [1] the target is T1, Odorant receptor 29 (AgamOr29) (Anopheles gambiae, UniProt A0A1S4H074).
T1 construct: coding region, expressed with AgamOrco in Xenopus laevis oocytes; with AgamOrco
T1 sequence (A0A1S4H074 1-384): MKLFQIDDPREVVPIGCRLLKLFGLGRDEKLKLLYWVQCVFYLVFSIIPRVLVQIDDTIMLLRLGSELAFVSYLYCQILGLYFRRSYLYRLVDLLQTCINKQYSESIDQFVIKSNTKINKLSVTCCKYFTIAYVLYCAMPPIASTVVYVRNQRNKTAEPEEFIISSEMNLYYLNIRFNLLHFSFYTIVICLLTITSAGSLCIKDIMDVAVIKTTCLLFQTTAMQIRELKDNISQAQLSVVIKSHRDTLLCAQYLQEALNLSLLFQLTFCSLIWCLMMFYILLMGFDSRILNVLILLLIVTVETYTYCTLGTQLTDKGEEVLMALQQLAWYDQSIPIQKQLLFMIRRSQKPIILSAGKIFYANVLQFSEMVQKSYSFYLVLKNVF
T1 sequence (Q7QCC7 1-478 partner): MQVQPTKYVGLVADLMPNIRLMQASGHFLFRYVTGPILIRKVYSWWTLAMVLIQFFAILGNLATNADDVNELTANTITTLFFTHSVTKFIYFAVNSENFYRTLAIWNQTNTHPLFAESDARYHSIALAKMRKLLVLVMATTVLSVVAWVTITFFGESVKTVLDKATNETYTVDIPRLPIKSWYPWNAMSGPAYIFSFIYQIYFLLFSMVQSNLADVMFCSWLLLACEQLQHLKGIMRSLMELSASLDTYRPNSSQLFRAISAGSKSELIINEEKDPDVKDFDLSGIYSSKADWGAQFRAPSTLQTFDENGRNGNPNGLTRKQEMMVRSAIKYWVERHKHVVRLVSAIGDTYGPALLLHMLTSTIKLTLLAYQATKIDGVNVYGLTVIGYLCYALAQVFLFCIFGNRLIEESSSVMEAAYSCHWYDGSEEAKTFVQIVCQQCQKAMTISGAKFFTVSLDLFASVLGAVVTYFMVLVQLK
Kind of experiment: two-electrode voltage clamp of Xenopus oocytes, concentration-response. The class given is cell-based. The source says:
two-electrode voltage clamp of Xenopus oocytes, concentration-response on Odorant receptor 29 (AgamOr29) | to (R)-(–)-linalool (left)and (+/–) linalool (right).
A general note: In two-electrode clamp one electrode senses voltage and the other passes current.

For experiment [2], the target named is T1, Odorant receptor 29 (AgamOr29). Kind of experiment: two-electrode voltage clamp of Xenopus oocytes, single concentration […]. Format: cell-based.

In experiment [1], `C=CC(C)(O)CCC=C(C)C` (racemic) [(+/–) linalool] showed an EC50 of around 5.7 µM. The same measure, in the same setting: under `C=C[C@](C)(O)CCC=C(C)C` [(R)-(–)-linalool] stands around 8 µM. Take `CCC(C)(O)CCCC(C)C` (stereo not drawn) [tetrahydro linalool]: the “two-electrode voltage clamp of Xenopus oocytes, single concentration 10^-4 M” value in experiment [2] is recorded as “tetrahydro linalool elicited a moderate, but repeatable response from AgamOr29, likely due to its structural similarity to linalool”.
